In patent US20030133881A1, “Formulations for the remineralization of teeth” (priority 2001, published 2003):

How the values were obtained:
[1] = test system: Streptococcus sobrinus; TH 21; assay: Ozone on S. sobrinus on saliva coated glass beads; conditions: 10 seconds of ozone applied to saliva coated glass beads
Description: In study 2, 40 sterile saliva coated glass beads were put into bijoux bottles with 3 mls of Todd Hewitt broth for control and test groups. S. sobrinus and S. mutans were inoculated and incubated anaerobically overnight. Each glass bead was washed with 2 mls of PBS. Immediately, 10 seconds of ozone was applied to the glass beads in the test groups. Subsequently, each glass bead in the test and control groups was placed in 3 mls of Todd Hewitt broth with six more sterile glass beads and were vortexed for 30 seconds. After decimal dilutions, 100 ml aliquots were spread on blood agar plates supplemented with 5% (V/V) horse blood and placed in an anaerobic chamber at 37° C. for two days. The number of each colony type was counted and calculated.

[2] = test system: microflora from primary root carious lesions (PRCL); assay: Ozone effect on microflora from primary root caries ex-vivo; format: cell-based; conditions: for Mean ± SE of Total cfu (Log10): After 10 Seconds of Ozone Treatment
From the text: Primary root carious lesions (PRCL) are a major clinical problem. The aim of this study was to establish if ozone could achieve effective microbial killing in PRCL. An ozone producing generator (Purezone Ltd., Ipswich, U.K.) was used in this ex-vivo study assessing the use of ozone on PRCL. In this study, soft PRCL requiring restoration were used as these are the most severe type of lesion found in humans. 20 freshly extracted teeth with PRCL requiring restoration were used. After plaque removal using a hand held standard fine nylon fiber sterile toothbrush with sterile water as a lubricant to cleanse the surface, each tooth was then isolated using sterile cotton wool rolls and dried using a dry sterile cotton wool roll. […] Each sample was weighed and immediately placed in 1 ml of Fastidious Anaerobe Broth (FAB). To each 1 ml of FAB containing a biopsy o carious or ozone treated carious dentine, sterile glass beads were added. They were vortexed for 30 seconds to facilitate the extraction of any micro-organisms from the carious dentine and disperse any aggregates.
The procedure of Example 2 was repeated except that ozonized water was applied to the lesion for 20 seconds.

SMILES: O=[O+][O-] [ozone]
- colony count (log10), Mean±SE [1]: 1.09±0.36 log10
- percentage of micro-organisms killed ([2]; 10 seconds of ozone, PRCL ex-vivo): more than 99%
- Mean ± SE of Total cfu (Log10) ([2]; soft PRCL from extracted teeth): 3.57±0.37 Log10
- Mean ± SE of Total cfu (Log10) ([2]; soft PRCL from extracted teeth, listed as Ozone): 3.57 ± 0.37 Log10
- Total cfu (log10), mean±SE ([2]; after 20 seconds of ozone treatment, soft PRCL from extracted teeth): 3.77±0.42 log10
